{"source": "patent US11807627B2", "about": "“Morphic forms of complement factor D inhibitors” (priority 2018, dated 2023)", "format_in_all_cases": "physicochemical", "key": {"[1]": {"experiment": "Interconversion experiments: competitive slurries (Example 2, Table 6)", "method": "A solution of Compound 3 and solvent/solvent system of interest was prepared. Solids persisted in solution. The samples were placed onto a stir plate at ambient (RT) or elevated (ET) temperatures. The samples were monitored to ensure that solids persisted during the slurry process. The solids were collected via vacuum filtration and dried under ambient conditions. […] At ambient temperature, Forms B and M are both present after almost a week of slurrying."}, "[2]": {"experiment": "Vapor stress experiments at room temperature", "from_the_text": "Compound 3 was placed into vials which were sealed into chambers containing organic solvents. The samples were kept under these conditions for a period of days and then checked for signs of morphology changes."}, "[3]": {"experiment": "Interconversion experiments: heat stress of forms (Table 6)", "conditions": "no solvent", "method": "Saturated solutions of Compound 3 or solids generated from crystallization attempts were prepared. A small quantity of the sample was placed into an oven set at a specified temperature. The samples were monitored, microscopically, for signs of crystallization."}, "[4]": {"experiment": "Drying of isolated samples at 50° C. for approximately 24 hours", "method": "Samples produced from thermal cycling, cooling and evaporation experiments were dried at 50° C. for approximately 24 hours to assess any de-solvation/dehydration. From temperature cycling experiments, 3 samples converted upon drying: • Acetonitrile sample converted from Form J to amorphous; • 40% Ethanol/60% Water (% v/v) converted from Form N to Form P; and • Methanol sample converted from Form O to amorphous."}, "[5]": {"experiment": "Thermogravimetric/differential thermal analysis (TG/DTA)", "conditions": "Table 22B", "method": "Approximately, 5 mg of material was weighed into an open aluminium pan and loaded into a simultaneous thermogravimetric/differential thermal analyzer (TG/DTA) and held at room temperature. The sample was then heated at a rate of 10° C./min from 20° C. to 400° C. during which time the change in sample weight occurred was recorded along with any differential thermal events (DTA). Nitrogen was used as the purge gas at a flow rate of 300 cm^3/min."}, "[6]": {"experiment": "Storage stability of Compound 3 forms (80° C., 40° C./75% RH, 25° C./60% RH, ambient)", "conditions": "40° C./75% RH or 25° C./60% RH, capped or uncapped vial", "method": "No changes by XRPD or HPLC purity were observed when the material was stored at 40° C./75% RH, 80° C. or under ambient conditions."}, "[7]": {"experiment": "Solvent solubility screen by solvent addition (lyophilized material)", "conditions": "thermodynamic from solid", "method": "A solvent solubility screen was conducted using 32 solvent systems. Approximately 360 mg of Compound 3 Form A was weighed into a 20 mL glass vial and dissolved using 18 mL of 1,4-dioxane. 0.5 mL of the solution was then dispensed into thirty-four 2 mL glass vials (approx. 10 mg per vial). The Compound 3 Form A solutions were then frozen (at −50° C.) and dried by lyophilization using a Lablyo mini freeze drier. Post-lyophilization, a sub-sample was taken and analyzed by XRPD. Material was successfully rendered amorphous by lyophilization.\nThe material produced from lyophilization was used for the solubility assessment. Solubility was estimated by a solvent addition technique. The solubility study was completed as follows: • Each solvent system was added to the appropriate vial in 5 volume aliquots until 100 volumes had been added or until the API dissolved; • Between each addition, samples were heated to 40° C. to check dissolution at elevated temperatures; • If 100 volumes of solvent were added without dissolution, solubility was calculated to be below this point."}}, "note": "Where two headings read alike, the source gives them in different places.", "data": [{"smiles": "CC(=O)c1nn(CC(=O)N2[C@H](C(=O)Nc3nc(Br)ccc3C)C[C@@]3(C)C[C@@H]23)c2ccc(-c3cnc(C)nc3)cc12", "note": "[A vs. B]", "values": [{"measurement": "Interconversion: XRPD Result after slurry", "setting": "[1]; ACN, RT Slurry", "result": "Form E"}, {"measurement": "Interconversion: XRPD Result after slurry", "setting": "[1]; EtOAc, RT Slurry", "result": "Form B"}, {"measurement": "Interconversion: XRPD Result after slurry", "setting": "[1]; EtOAc, ~50° C. Slurry", "result": "Form B"}]}, {"smiles": "CC(=O)c1nn(CC(=O)N2[C@H](C(=O)Nc3nc(Br)ccc3C)C[C@@]3(C)C[C@@H]23)c2ccc(-c3cnc(C)nc3)cc12", "note": "[A, B, G]", "values": [{"measurement": "Interconversion: XRPD Result after slurry", "setting": "[1]; EtOAc, RT Slurry", "result": "Form B"}]}, {"smiles": "CC(=O)c1nn(CC(=O)N2[C@H](C(=O)Nc3nc(Br)ccc3C)C[C@@]3(C)C[C@@H]23)c2ccc(-c3cnc(C)nc3)cc12", "note": "[B, G, M]", "values": [{"measurement": "Interconversion: XRPD Result after slurry", "setting": "[1]; EtOAc, ~50° C. Slurry", "result": "Form M*"}]}, {"smiles": "CC(=O)c1nn(CC(=O)N2[C@H](C(=O)Nc3nc(Br)ccc3C)C[C@@]3(C)C[C@@H]23)c2ccc(-c3cnc(C)nc3)cc12", "note": "[Disordered]", "values": [{"measurement": "Vapor stress: XRPD Result", "setting": "[2]; EtOAc vapor", "result": "Form B"}, {"measurement": "Vapor stress: XRPD Result", "setting": "[2]; MTBE vapor", "result": "Form C"}]}, {"smiles": "CC(=O)c1nn(CC(=O)N2[C@H](C(=O)Nc3nc(Br)ccc3C)C[C@@]3(C)C[C@@H]23)c2ccc(-c3cnc(C)nc3)cc12", "note": "[Form C]", "values": [{"measurement": "Interconversion: XRPD Result after heating", "setting": "[3]; ~50° C.", "result": "Form C"}]}, {"smiles": "CC(=O)c1nn(CC(=O)N2[C@H](C(=O)Nc3nc(Br)ccc3C)C[C@@]3(C)C[C@@H]23)c2ccc(-c3cnc(C)nc3)cc12", "note": "[Form E]", "values": [{"measurement": "Interconversion: XRPD Result after heating", "setting": "[3]; ~50° C.", "result": "Form G"}]}, {"smiles": "CC(=O)c1nn(CC(=O)N2[C@H](C(=O)Nc3nc(Br)ccc3C)C[C@@]3(C)C[C@@H]23)c2ccc(-c3cnc(C)nc3)cc12", "note": "[Form F + C]", "values": [{"measurement": "Interconversion: XRPD Result after heating", "setting": "[3]; ~50° C.", "result": "Form F + C"}]}, {"smiles": "CC(=O)c1nn(CC(=O)N2[C@H](C(=O)Nc3nc(Br)ccc3C)C[C@@]3(C)C[C@@H]23)c2ccc(-c3cnc(C)nc3)cc12", "note": "[Form G]", "values": [{"measurement": "Interconversion: XRPD Result after heating", "setting": "[3]; ~50° C.", "result": "Form G"}, {"measurement": "Interconversion: XRPD Result after heating", "setting": "[3]; ~160° C.", "result": "Form M"}]}, {"smiles": "CC(=O)c1nn(CC(=O)N2[C@H](C(=O)Nc3nc(Br)ccc3C)C[C@@]3(C)C[C@@H]23)c2ccc(-c3cnc(C)nc3)cc12", "note": "[Form J + Form L]", "values": [{"measurement": "Interconversion: XRPD Result after heating", "setting": "[3]; ~50° C.", "result": "Form G"}]}, {"smiles": "CC(=O)c1nn(CC(=O)N2[C@H](C(=O)Nc3nc(Br)ccc3C)C[C@@]3(C)C[C@@H]23)c2ccc(-c3cnc(C)nc3)cc12", "note": "[Form M]", "values": [{"measurement": "Relative stability in competitive slurry", "setting": "[1]; Forms B and M, approximately 50° C.", "result": "most stable"}]}, {"smiles": "CC(=O)c1nn(CC(=O)N2[C@H](C(=O)Nc3nc(Br)ccc3C)C[C@@]3(C)C[C@@H]23)c2ccc(-c3cnc(C)nc3)cc12", "note": "[Form N]", "values": [{"measurement": "Form after drying (de-solvation/dehydration)", "setting": "[4]", "result": "Form P"}, {"measurement": "Onset Temp: Weak thermal events", "setting": "[5]", "result": "onset of 134.7 °C"}]}, {"smiles": "CC(=O)c1nn(CC(=O)N2[C@H](C(=O)Nc3nc(Br)ccc3C)C[C@@]3(C)C[C@@H]23)c2ccc(-c3cnc(C)nc3)cc12", "note": "[Form O]", "values": [{"measurement": "Form after drying (de-solvation/dehydration)", "setting": "[4]", "result": "amorphous"}, {"measurement": "Onset Temp: Melting", "setting": "[5]; listed as Pattern O", "result": "Melting 179.6 °C"}]}, {"smiles": "CC(=O)c1nn(CC(=O)N2[C@H](C(=O)Nc3nc(Br)ccc3C)C[C@@]3(C)C[C@@H]23)c2ccc(-c3cnc(C)nc3)cc12", "note": "[Lyophilized Compound 3]", "values": [{"measurement": "Stability: recrystallization upon storage", "setting": "[6]", "result": "no recrystallization"}, {"measurement": "solubility", "setting": "[7]; 2-propanol/heptane mixtures, organic solvent or mixture, 2-propanol, 95% 2-propanol/5% heptane, 70% 2-propanol/30% heptane, toluene, elevated temperatures (40° C.), read-out: Solubility (solvent addition), dissolution at elevated temperatures", "result": "> 200", "unit": "mg/mL"}, {"measurement": "solubility", "setting": "[7]; organic solvent or mixture, 1,4-dioxane, 1-butanol, 2-methyl THF, 95% 2-propanol/5% water, acetone, acetonitrile, 95% acetonitrile/5% water, chloroform, DCM, DMSO, ethyl acetate (dry), ethanol, isopropyl acetate, methanol, MEK, MIBK, DMF, DMA, THF, 95% methanol/5% water, read-out: Solubility (solvent addition)", "result": "≥ 200", "unit": "mg/mL"}, {"measurement": "solubility", "setting": "[7]; organic solvent or mixture, 50% 2-propanol/50% heptane and 50% ethanol/50% heptane (% v/v), read-out: Solubility (solvent addition)", "result": "> 100", "unit": "mg/mL"}, {"measurement": "solubility", "setting": "[7]; n-heptane, tert-butylmethyl ether, ethyl ether, water, 50% 2-propanol/50% water, 40% ethanol/60% water, read-out: Solubility (solvent addition)", "result": "< 10", "unit": "mg/mL"}]}]}
